Experiments:
[1] = system: isogenic HCT116 cell line panel; experiment: Cell-Titer glow cytotoxicity, potency comparison across the panel; assay type: cell-based, human; conditions: IC50 values, independently of HCT116 p53-status
Description: CellTiter-Glo® luminescent cell viability assay. Cells were seeded in 96-well plates at a density of 5×10^3 cells per well. 20 μL of CellTiter-Glo® Reagent was added directly to the wells, following the manufacturers protocol. The bioluminescence signal was determined using an IVIS imaging system, optionally at a period of 48-72 hours after treatment.
CB002-analog #4 is a potent anti-tumor agent in vitro and in vivo. The inventors focused on lead CB002-analog #4 and investigated its therapeutic index in vitro and in vivo. The inventors treated an isogenic HCT116 cell line panel with 100 μM CB002 or 25 μM CB002-analog #4 and established IC50 values by the Cell-Titer glow cytotoxicity assay. Across this panel, CB002-analog #4 has a 20-fold to 30-fold range in IC50 values, independently of the HCT116 p53-status.

SW480 shNoxa cells = experiment: Tumor xenograft efficacy in NSG mice, Noxa knockdown; assay type: in vivo; conditions: compared to vehicle control
Description: Knockdown expression of NOXA by lentivirus infection. A NOXA shRNA plasmid construct was amplified according to the manufacturers recommendation (TRC Lentiviral Human PMAIP1 shRNA, Dharmacon). Plasmid DNA was isolated using the PureLink® HiPure Plasmid Filter Maxiprep Kit (Invitrogen) according to the manufacturers instructions. Lentivirus production was performed by transfecting HEK293T cells at a density of 8×10^6 cells per 10-cm dish with 1.6 μg pMD2.G envelope plasmid, 3.2 μg psPAX2 packaging vector, 3.2 μg plasmid DNA, and 24 μL of Lipofectamine® Transfection reagent 2000 (Life Technologies) in a total volume of the reaction of 1 mL of antibiotic-free DMEM media for 6-10 hours. The media was then replaced with antibiotic-free DMEM. Lentiviral particles were collected between forty-eight to seventy-two hours. SW480 cells ([…] cells per well in a 12-well plate) were infected 1:1 (virus-containing media: antibiotic-free DMEM media, total volume 1 mL) for twenty-four hours. Then, the media was replaced with DMEM complete media for an additional twenty-four hours. […]
Drug efficacy using in vivo tumor xenografts. […] Mouse weight and tumor measurements were recorded one-two times per week. Tumor volume was calculated as V=0.5*L*W^2, where L is length and W is the width of the tumor. […]

SW480 cells [2] = experiment: Clonogenic (colony formation) assay; assay type: cell-based, human; conditions: SW480, versus CB002
Description: Colony formation assay. Cells were seeded in 6-well plates at a density of 500 cells per well. Cells were treated with CB002 small molecules for twenty-four hours. Then, cells were cultured in complete drug-free media for fifteen days. During the fifteen days, the media was changed every two-three days. At the end of the two weeks, the media was removed. Wells were washed twice with Dulbecco's phosphate-buffered saline (PBS). The colonies were fixed and stained with 10% methanol and 0.25% crystal violet (Sigma-Aldrich, St. Louis, Mo., USA) for thirty minutes. Wells were then carefully washed with distilled, deionized water and allowed to dry.

SW480 cells [3] = experiment: Propidium iodide Sub-G1 apoptosis analysis; assay type: cell-based, human; conditions: compared to vehicle control, forty-eight hours
Description: Apoptosis assay. Apoptotic cells were quantified by sub-G1 analysis. Cells were seeded at a density of 2.5×10^5to 5×10^5in a 6-well plate and treated forty-eight to seventy-two hours. After treatment, adherent cells were trypsinized and collected along with floating cells, washed with phosphate-buffered saline, and fixed in 70% ethanol. Cells were then incubated in a phosphate-citric acid buffer (0.2M Na2HPO4+0.1M citric acid, pH 7.8) at room temperature for five minutes, spun down, and resuspended for staining with 50 μg/mL propidium iodide (PI) in the presence of 250 μg/mL pancreatic ribonuclease (RNase A). Sub-G1 analyses were performed using an Epics Elite Epics flow cytometer (Coulter-Beckman).
Propidium iodide and BrdU flow cytometry assay. Cells were seeded at a density of 5×10^5 in a 6-well plate and treated for forty-eight to seventy-two hours. After treatment, floating cells were collected, and adherent cells were trypsinized, pelleted, washed with phosphate-buffered saline, and fixed in 70% ethanol overnight. For propidium iodide (PI) based Sub-G1 apoptosis analysis, cells were spun down after fixation and resuspended in phosphate-citric acid buffer (0.2M Na2HPO4+0.1M Citric Acid, pH 7.8) at room temperature for five minutes. […] Samples were analyzed on an Epics Elite Epics flow cytometer (Coulter-Beckman).

`Cn1c(=O)c2[nH]c(Nc3cccc(C(F)(F)F)c3)nc2n(C)c1=O` [CB002-analog #4] was tested, and the “potency relative to CB002” value [1] was 20-30 times, the tumor volume (SW480 shNoxa cells) was “did not differ in tumor volume” and the “cytotoxicity by clonogenic assay” value (SW480 cells [2]) was “more cytotoxic in vitro than CB002”. For the same compound, the Sub-G1 content (SW480 cells [3]) was “significant increase of Sub-G1 content”.

— patent US20230219957A1, “SMALL MOLECULE CB002-ANALOGES RESTORE THE P53 PATHWAY AND TARGET S-PHASE CHECKPOINT” (Brown University, priority 2020, published 2023)
